Source: patent US11590116B2 (THERAVANCE BIOPHARMA R&D IP, LLC, priority 2019, dated 2023)

Key:
[1] = tested on: TGF-β-stimulated SMAD3 phosphorylation in BEAS-2B cells; assay: Cellular ALK5 potency assay, inhibition of TGF-β stimulated pSMAD3 formation in BEAS-2B cells; format: cell-based; conditions: Homo sapiens; inhibition of TGF-β stimulated pSMAD3 formation, BEAS-2B cells; read-out: BEAS2B pIC50 (converted)
How it was run: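 SMAD3 phosphorylation was measured by AlphaLISA after 30 min TGF-β stimulation (10 ng/mL final) of BEAS-2B cells preincubated 1 h with compound at 37 °C. Results given as pIC50.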

[2] = biological target: T1, recombinant human ALK5 (TGF-βR1) protein (Homo sapiens, UniProt P36897); assay: Biochemical ALK5 (TGF-βR1) assay to measure pKi (LANCE Ultra ULight kinase assay); conditions: apparent pKi from pIC50 by Cheng-Prusoff, read-out: ALK5 pKi (converted)
T1 construct: purchased Life Technologies PR9075A
T1 sequence (P36897 34-503): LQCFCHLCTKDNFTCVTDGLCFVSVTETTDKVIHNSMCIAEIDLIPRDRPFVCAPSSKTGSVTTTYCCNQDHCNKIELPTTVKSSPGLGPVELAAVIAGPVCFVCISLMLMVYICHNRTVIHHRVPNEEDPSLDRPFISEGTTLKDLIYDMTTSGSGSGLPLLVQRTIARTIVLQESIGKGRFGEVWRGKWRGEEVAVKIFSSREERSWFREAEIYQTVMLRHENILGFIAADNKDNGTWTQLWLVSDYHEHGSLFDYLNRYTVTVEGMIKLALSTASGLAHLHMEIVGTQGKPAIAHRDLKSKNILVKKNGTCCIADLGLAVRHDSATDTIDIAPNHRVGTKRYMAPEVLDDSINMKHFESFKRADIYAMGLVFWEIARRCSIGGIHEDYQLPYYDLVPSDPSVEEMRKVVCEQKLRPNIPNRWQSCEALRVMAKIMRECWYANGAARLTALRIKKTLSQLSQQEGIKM
How it was run: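 After a 60 min room-temperature preincubation of ALK5 with compound, phosphorylation proceeds 60 min at 37 °C on ATP addition (125 μM as 5× stock). Detection: Eu-labelled phospho-Thr1342 Topo IIα antibody in EDTA buffer, pH 7.0; emission 665 nm.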

Compound	Ki [2] [nM]	IC50 [1] [nM]
Cc1cccc(-c2[nH]cnc2-c2ccc3ncc(C(=O)O[C@@H]4CCCC[C@H]4N)cc3c2)n1 [Compound 880, (1R,2R)-2-aminocyclohexyl 6-(5-(6-methylpyridin-2-yl)-1H-imidazol-4-yl)quinoline-3-carboxylate]	0.398 to 3.16	25.1 to 158
Cc1cccc(-c2[nH]cnc2-c2ccc3ncc(C(=O)O[C@@H]4CCCC[C@@H]4N)cc3c2)n1 [Compound 881, (1R,2S)-2-aminocyclohexyl 6-(5-(6-methylpyridin-2-yl)-1H-imidazol-4-yl)quinoline-3-carboxylate]	3.98 to 31.6	200 to 1260
Cc1cccc(-c2[nH]cnc2-c2ccc3ncc(C(=O)O[C@H]4CCCC[C@H]4N)cc3c2)n1 [Compound 882, (1S,2R)-2-aminocyclohexyl 6-(5-(6-methylpyridin-2-yl)-1H-imidazol-4-yl)quinoline-3-carboxylate]	3.98 to 31.6	25.1 to 158
Cc1cccc(-c2[nH]cnc2-c2ccc3ncc(C(=O)OC[C@@H]4CCCCN4)cc3c2)n1 [Compound 883, (S)-piperidin-2-ylmethyl 6-(5-(6-methylpyridin-2-yl)-1H-imidazol-4-yl)quinoline-3-carboxylate]	0.398 to 3.16	25.1 to 158
Cc1cccc(-c2[nH]cnc2-c2ccc3ncc(C(=O)OC[C@H]4CCCCN4)cc3c2)n1 [Compound 884, (R)-piperidin-2-ylmethyl 6-(5-(6-methylpyridin-2-yl)-1H-imidazol-4-yl)quinoline-3-carboxylate]	0.398 to 3.16	25.1 to 158
Cc1cccc(-c2[nH]cnc2-c2ccc3ncc(-c4cc(C(=O)O[C@H]5CCNC5)cs4)cc3c2)n1 [Compound 885, [(3S)-pyrrolidin-3-yl] 5-[6-[5-(6-methyl-2-pyridyl)-1H-imidazol-4-yl]-3-quinolyl]thiophene-3-carboxylate]	< 0.0316	25.1 to 158
Cc1cccc(-c2[nH]cnc2-c2ccc3ncc(C(=O)OCCN4C[C@@H](C)N[C@@H](C)C4)cc3c2)n1 [Compound 886, 2-((3S,5R)-3,5-dimethylpiperazin-1-yl)ethyl 6-(5-(6-methylpyridin-2-yl)-1H-imidazol-4-yl)quinoline-3-carboxylate]	0.0398 to 0.316	25.1 to 158
Cc1cccc(-c2[nH]cnc2-c2ccc3ncc(C(=O)OCCN4CCCCC4)cc3c2)n1 [Compound 887, 2-(piperidin-1-yl)ethyl 6-(5-(6-methylpyridin-2-yl)-1H-imidazol-4-yl)quinoline-3-carboxylate]	0.0398 to 0.316	25.1 to 158
Cc1cccc(-c2[nH]cnc2-c2ccc3ncc(C(=O)OCCN4CC5(CCCNC5)C4)cc3c2)n1 [Compound 890, 2-(2,6-diazaspiro[3.5]nonan-2-yl)ethyl 6-(5-(6-methylpyridin-2-yl)-1H-imidazol-4-yl)quinoline-3-carboxylate]	0.398 to 3.16	200 to 1260
Cc1cccc(-c2[nH]cnc2-c2ccc3ncc(C(=O)OCCN4CC5(CCNCC5)C4)cc3c2)n1 [Compound 891, 2-(2,7-diazaspiro[3.5]nonan-2-yl)ethyl 6-(5-(6-methylpyridin-2-yl)-1H-imidazol-4-yl)quinoline-3-carboxylate]	0.0398 to 0.316	200 to 1260
Cc1cccc(-c2[nH]cnc2-c2ccc3ncc(C(=O)OCCN4CCC5(CC4)CNC5)cc3c2)n1 [Compound 892, 2-(2,7-diazaspiro[3.5]nonan-7-yl)ethyl 6-(5-(6-methylpyridin-2-yl)-1H-imidazol-4-yl)quinoline-3-carboxylate]	0.0398 to 0.316	200 to 1260
Cc1cccc(-c2[nH]cnc2-c2ccc3ncc(C(=O)OCCN4CC5(CNC5)C4)cc3c2)n1 [Compound 894, 2-(2,6-diazaspiro[3.3]heptan-2-yl)ethyl 6-(5-(6-methylpyridin-2-yl)-1H-imidazol-4-yl)quinoline-3-carboxylate]	0.398 to 3.16	200 to 1260
Cc1cccc(-c2[nH]cnc2-c2ccc3ncc(C(=O)OCCN4CCC5(CCNCC5)C4)cc3c2)n1 [Compound 896, 2-(2,8-diazaspiro[4.5]decan-2-yl)ethyl 6-(5-(6-methylpyridin-2-yl)-1H-imidazol-4-yl)quinoline-3-carboxylate]	0.0398 to 0.316	200 to 1260
Cc1cccc(-c2[nH]cnc2-c2ccc3ncc(C(=O)OCCCN4CCNCC4)cc3c2)n1 [Compound 897, 3-(piperazin-1-yl)propyl 6-(5-(6-methylpyridin-2-yl)-1H-imidazol-4-yl)quinoline-3-carboxylate]	0.0398 to 0.316	25.1 to 158

The next lines start with results.

Ki [2] [nM]	Compound	IC50 [1] [nM]
0.0398 to 0.316	Cc1cccc(-c2[nH]cnc2-c2ccc3ncc(C(=O)OCCCN4C[C@@H](C)N[C@@H](C)C4)cc3c2)n1 [Compound 898, 3-((3S,5R)-3,5-dimethylpiperazin-1-yl)propyl 6-(5-(6-methylpyridin-2-yl)-1H-imidazol-4-yl)quinoline-3-carboxylate]	25.1 to 158
0.0398 to 0.316	Cc1cccc(-c2[nH]cnc2-c2ccc3ncc(C(=O)OCCCN4CC5(CCNCC5)C4)cc3c2)n1 [Compound 903, 3-(2,7-diazaspiro[3.5]nonan-2-yl)propyl 6-(5-(6-methylpyridin-2-yl)-1H-imidazol-4-yl)quinoline-3-carboxylate]	200 to 1260
0.0398 to 0.316	Cc1cccc(-c2[nH]cnc2-c2ccc3ncc(C(=O)OCCCN4CCC5(CC4)CNC5)cc3c2)n1 [Compound 904, 3-(2,7-diazaspiro[3.5]nonan-7-yl)propyl 6-(5-(6-methylpyridin-2-yl)-1H-imidazol-4-yl)quinoline-3-carboxylate]	200 to 1260
0.0398 to 0.316	Cc1cccc(-c2[nH]cnc2-c2ccc3ncc(-c4ccc(C(=O)O)s4)cc3c2)n1 [Compound 1005, 5-(6-(5-(6-methylpyridin-2-yl)-1H-imidazol-4-yl)quinolin-3-yl)thiophene-2-carboxylic acid]	1580 to 10000
0.0398 to 0.316	Cc1cccc(-c2[nH]cnc2-c2ccc3ncc(-c4ccc(C(=O)OC5CNC5)s4)cc3c2)n1 [Compound 1006, azetidin-3-yl 5-(6-(5-(6-methylpyridin-2-yl)-1H-imidazol-4-yl)quinolin-3-yl)thiophene-2-carboxylate]	25.1 to 158
0.0398 to 0.316	Cc1cccc(-c2[nH]cnc2-c2ccc3ncc(-c4ccc(C(=O)OCC5CNC5)s4)cc3c2)n1 [Compound 1007, azetidin-3-ylmethyl 5-(6-(5-(6-methylpyridin-2-yl)-1H-imidazol-4-yl)quinolin-3-yl)thiophene-2-carboxylate]	25.1 to 158
0.0398 to 0.316	Cc1cccc(-c2[nH]cnc2-c2ccc3ncc(-c4ccc(C(=O)O[C@H]5CCN(C)C5)s4)cc3c2)n1 [Compound 1008, (S)-1-methylpyrrolidin-3-yl 5-(6-(5-(6-methylpyridin-2-yl)-1H-imidazol-4-yl)quinolin-3-yl)thiophene-2-carboxylate]	25.1 to 158
0.0398 to 0.316	Cc1cccc(-c2[nH]cnc2-c2ccc3ncc(-c4ccc(C(=O)O[C@@H]5CCN(C)C5)s4)cc3c2)n1 [Compound 1009, (R)-1-methylpyrrolidin-3-yl 5-(6-(5-(6-methylpyridin-2-yl)-1H-imidazol-4-yl)quinolin-3-yl)thiophene-2-carboxylate]	25.1 to 158
0.0398 to 0.316	Cc1cccc(-c2[nH]cnc2-c2ccc3ncc(-c4ccc(C(=O)OC5CCNCC5)s4)cc3c2)n1 [Compound 1010, piperidin-4-yl 5-(6-(5-(6-methylpyridin-2-yl)-1H-imidazol-4-yl)quinolin-3-yl)thiophene-2-carboxylate]	25.1 to 158
0.0398 to 0.316	Cc1cccc(-c2[nH]cnc2-c2ccc3ncc(-c4ncc(C(=O)O)s4)cc3c2)n1 [Compound 1017, 2-(6-(5-(6-methylpyridin-2-yl)-1H-imidazol-4-yl)quinolin-3-yl)thiazole-5-carboxylic acid]	1580 to 10000
0.0398 to 0.316	Cc1cccc(-c2[nH]cnc2-c2ccc3ncc(-c4ncc(C(=O)OC5CNC5)s4)cc3c2)n1 [Compound 1018, azetidin-3-yl 2-(6-(5-(6-methylpyridin-2-yl)-1H-imidazol-4-yl)quinolin-3-yl)thiazole-5-carboxylate]	25.1 to 158
0.0398 to 0.316	Cc1cccc(-c2[nH]cnc2-c2ccc3ncc(-c4csc(C(=O)O[C@H]5CCNC5)n4)cc3c2)n1 [Compound 1024, [(3S)-pyrrolidin-3-yl] 4-[6-[5-(6-methyl-2-pyridyl)-1H-imidazol-4-yl]-3-quinolyl]thiazole-2-carboxylate]	25.1 to 158
0.0398 to 0.316	Cc1cccc(-c2[nH]cnc2-c2ccc3ncc(-c4ccc(C(=O)OCCN5CCNCC5)cn4)cc3c2)n1 [Compound 1025, 2-piperazin-1-ylethyl 6-[6-[5-(6-methyl-2-pyridyl)-1H-imidazol-4-yl]-3-quinolyl]pyridine-3-carboxylate]	25.1 to 158
